Source: patent US20240059691A1 (KALVISTA PHARMACEUTICALS LIMITED, priority 2020, published 2024)

Assays:
[1] = Pharmacokinetics following a single intravenous dose and a single oral dose in male Sprague-Dawley rats (oral bioavailability, half-life); assay type: in vivo; conditions: rat, plasma, 10% DMSO/10% Cremophor EL/80% SWFI; for bioavailability: read-out: F % (oral bioavailability)
Description: Pharmacokinetic studies of the compounds in Table 16 were performed to assess the pharmacokinetics following a single intravenous dose and a single oral dose in male Sprague-Dawley rats. Two rats were given a single intravenous dose of 1 mL/kg of a nominal 1 mg/mL (1 mg/kg) composition of test compound in 10% DMSO/10% Cremophor EL/80% SWFI vehicle. Example 2191 was dosed at 1 mL/kg of a nominal 2 mg/mL (2 mg/kg) using the same vehicle.
Two rats were given a single oral dose of 5 mL/kg of a nominal 1 mg/mL (5 mg/kg) composition of test compound in 10% DMSO/10% Cremophor EL/80% SWFI vehicle. Example 2191 was dosed at 5 mL/kg of a nominal 2 mg/mL (10 mg/kg) using the same vehicle.
Following intravenous dosing, blood samples were collected over a period of 12 h. Sample times were 2, 5, 15 and 30 min then 1, 2, 4, 6, and 12 h. Following oral dosing, blood samples were collected over a period of 24 h. Sample times were 5, 15 and 30 min then 1, 2, 4, 6, 8, 12 and 24 h.
Following collection, blood samples were centrifuged and the plasma fraction analysed for concentration of test compound by LCMS. Oral bioavailability and half-life calculations from these studies were obtained using Phoenix WinNonlin (v8.0) and are shown below: […]

Thrombin = Thrombin (Homo sapiens (Human), UniProt P00734); test: Determination of related protease inhibition: Thrombin (fluorogenic substrate at Km); assay type: biochemical; conditions: 25° C.
How it was run: (§1)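 Fluorogenic kinetic assay: human enzyme, substrate at Km, titrated inhibitor; 5 min read at 25 °C; IC50 from % of uninhibited rate.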

FXa = FXa (Homo sapiens (Human), UniProt P00742); test: Determination of related protease inhibition: FXa (fluorogenic substrate at Km); assay type: biochemical; conditions: 25° C.
How it was run: as §1

KLK1 = KLK1 (Homo sapiens (Human), UniProt P06870); test: Determination of related protease inhibition: KLK1 (fluorogenic substrate at Km); assay type: biochemical; conditions: 25° C.
How it was run: as §1

Trypsin = test: Determination of related protease inhibition: Trypsin (fluorogenic substrate at Km); assay type: biochemical, human; conditions: 25° C.
Description: (§2) Determination of Related Protease Inhibition
(§3) In vitro inhibition of related proteases was determined using an ([…] assay based on standard literature methods (see e.g. Shori et al., Biochem. Pharmacol., 1992, 43, 1209; Bouckaert et al., European Journal of Medicinal Chemistry 110 (2016) 181). Human serine protease enzymes Plasma Kallikrein, KLK1, FXa, Plasmin, Thrombin and Trypsin were assayed for enzymatic activity using an appropriate fluorogenic substrate at Km concentration, FXIa at fixed substrate concentration of 100 μM, and various concentrations of the test compound. Protease activity was measured by monitoring the accumulation of liberated fluorescence from the substrate over […]. The linear rate of fluorescence increase per minute was expressed as percentage (%) activity. IC50 values were calculated as the concentration of inhibitor giving 50% inhibition of the uninhibited enzyme activity (100%).

Plasmin = Plasmin (Homo sapiens (Human), UniProt P00747); test: Determination of related protease inhibition: Plasmin (fluorogenic substrate at Km); assay type: biochemical; conditions: 25° C.
Description: as §2, §3

Human Factor XIIa = Human Factor XIIa (Homo sapiens (Human), UniProt P00748); test: Determination of FXIIa inhibition (fluorogenic substrate H-DPro-Phe-Arg-AFC, IC50 assay); assay type: biochemical; conditions: substrate H-DPro-Phe-Arg-AFC at Km, 25° C.; class scale A-G
How it was run: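 IC50 derived from % remaining activity, taken as the linear fluorescence rate over a 5 min read at 25° C. Substrate H-DPro-Phe-Arg-AFC was used at its Km (Michaelis-Menten) with human FXIIa and serial compound dilutions, 25° C.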

FXIa = FXIa (Homo sapiens (Human), UniProt P03951); test: Determination of related protease inhibition: FXIa (fixed substrate concentration of 100 μM); assay type: biochemical; conditions: 25° C.
Plasma Kallikrein = Plasma Kallikrein (Homo sapiens (Human), UniProt P03952); test: Determination of related protease inhibition: Plasma Kallikrein (fluorogenic substrate at Km); assay type: biochemical; conditions: 25° C., read-out: IC50 (human PKal)
How it was run: as §1

Chain of FXa (P00742 235-488): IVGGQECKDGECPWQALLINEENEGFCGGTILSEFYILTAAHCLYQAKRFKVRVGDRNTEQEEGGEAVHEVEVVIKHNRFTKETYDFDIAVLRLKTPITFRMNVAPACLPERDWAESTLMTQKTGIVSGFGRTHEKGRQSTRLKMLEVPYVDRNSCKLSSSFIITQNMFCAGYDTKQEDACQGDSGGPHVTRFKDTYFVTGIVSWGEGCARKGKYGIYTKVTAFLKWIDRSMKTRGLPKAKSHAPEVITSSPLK
Chain of FXa (P00742 41-179 partner): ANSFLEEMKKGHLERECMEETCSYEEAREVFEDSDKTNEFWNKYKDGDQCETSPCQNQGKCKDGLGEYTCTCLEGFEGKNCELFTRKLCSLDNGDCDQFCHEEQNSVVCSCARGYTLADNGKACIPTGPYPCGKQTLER
Chain of Human Factor XIIa (P00748 373-615): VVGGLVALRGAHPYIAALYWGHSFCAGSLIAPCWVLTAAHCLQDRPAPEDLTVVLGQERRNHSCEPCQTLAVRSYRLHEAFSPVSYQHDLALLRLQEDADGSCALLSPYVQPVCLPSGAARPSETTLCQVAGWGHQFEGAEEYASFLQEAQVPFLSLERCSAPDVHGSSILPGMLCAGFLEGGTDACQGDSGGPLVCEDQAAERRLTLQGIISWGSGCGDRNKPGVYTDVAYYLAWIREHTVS
Chain of Plasmin (P00747 581-810): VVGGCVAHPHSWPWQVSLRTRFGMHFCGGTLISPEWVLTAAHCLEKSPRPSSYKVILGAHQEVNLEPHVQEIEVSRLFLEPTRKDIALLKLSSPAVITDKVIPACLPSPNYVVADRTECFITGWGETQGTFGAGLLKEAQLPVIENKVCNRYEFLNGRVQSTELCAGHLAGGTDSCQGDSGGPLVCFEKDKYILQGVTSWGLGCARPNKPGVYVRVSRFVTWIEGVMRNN
Chain of Plasmin (P00747 97-580 partner): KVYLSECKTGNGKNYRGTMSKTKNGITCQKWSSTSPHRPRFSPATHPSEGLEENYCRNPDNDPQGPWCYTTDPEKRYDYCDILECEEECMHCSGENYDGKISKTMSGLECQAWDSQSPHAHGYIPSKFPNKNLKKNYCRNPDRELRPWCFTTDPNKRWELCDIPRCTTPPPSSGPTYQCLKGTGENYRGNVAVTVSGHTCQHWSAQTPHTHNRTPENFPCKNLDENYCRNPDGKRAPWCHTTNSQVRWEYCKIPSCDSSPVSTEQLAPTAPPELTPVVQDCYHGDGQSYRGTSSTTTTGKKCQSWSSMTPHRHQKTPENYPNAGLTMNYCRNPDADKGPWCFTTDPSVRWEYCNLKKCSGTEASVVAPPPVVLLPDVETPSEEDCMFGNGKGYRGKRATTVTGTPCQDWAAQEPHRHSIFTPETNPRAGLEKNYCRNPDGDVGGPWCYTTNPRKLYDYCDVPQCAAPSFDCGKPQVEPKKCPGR
Chain of Plasma Kallikrein (P03952 391-638): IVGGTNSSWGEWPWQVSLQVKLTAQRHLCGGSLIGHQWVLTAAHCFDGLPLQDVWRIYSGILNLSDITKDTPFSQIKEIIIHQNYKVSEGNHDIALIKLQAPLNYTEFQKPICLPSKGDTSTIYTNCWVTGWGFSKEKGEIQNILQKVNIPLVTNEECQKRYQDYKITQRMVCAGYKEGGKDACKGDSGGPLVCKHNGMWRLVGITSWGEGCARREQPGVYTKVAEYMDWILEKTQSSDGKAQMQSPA
Chain of Plasma Kallikrein (P03952 20-390 partner): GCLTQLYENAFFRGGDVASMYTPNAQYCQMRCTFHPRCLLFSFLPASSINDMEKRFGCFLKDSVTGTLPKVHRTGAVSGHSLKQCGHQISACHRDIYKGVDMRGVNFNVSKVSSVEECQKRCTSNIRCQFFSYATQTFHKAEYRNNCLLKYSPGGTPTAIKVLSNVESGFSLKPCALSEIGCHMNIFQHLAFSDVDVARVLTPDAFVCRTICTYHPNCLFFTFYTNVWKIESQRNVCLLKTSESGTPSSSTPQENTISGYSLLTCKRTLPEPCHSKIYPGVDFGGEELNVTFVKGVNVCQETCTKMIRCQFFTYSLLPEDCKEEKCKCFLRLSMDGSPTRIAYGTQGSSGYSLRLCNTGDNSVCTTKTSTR
Chain of KLK1 (P06870 25-262): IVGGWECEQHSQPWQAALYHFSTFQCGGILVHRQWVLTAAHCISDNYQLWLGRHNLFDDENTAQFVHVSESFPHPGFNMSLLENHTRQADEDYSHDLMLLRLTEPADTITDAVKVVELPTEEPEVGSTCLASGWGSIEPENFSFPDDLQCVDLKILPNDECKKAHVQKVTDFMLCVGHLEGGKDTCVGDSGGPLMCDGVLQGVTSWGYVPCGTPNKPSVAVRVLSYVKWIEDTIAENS
Chain of FXIa (P03951 388-625): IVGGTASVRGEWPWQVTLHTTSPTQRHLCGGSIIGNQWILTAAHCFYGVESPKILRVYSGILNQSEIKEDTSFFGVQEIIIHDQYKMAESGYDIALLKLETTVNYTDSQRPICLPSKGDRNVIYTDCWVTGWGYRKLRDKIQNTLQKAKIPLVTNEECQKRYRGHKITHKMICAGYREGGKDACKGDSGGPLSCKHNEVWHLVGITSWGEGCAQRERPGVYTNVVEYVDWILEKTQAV
Chain of FXIa (P03951 19-387 partner): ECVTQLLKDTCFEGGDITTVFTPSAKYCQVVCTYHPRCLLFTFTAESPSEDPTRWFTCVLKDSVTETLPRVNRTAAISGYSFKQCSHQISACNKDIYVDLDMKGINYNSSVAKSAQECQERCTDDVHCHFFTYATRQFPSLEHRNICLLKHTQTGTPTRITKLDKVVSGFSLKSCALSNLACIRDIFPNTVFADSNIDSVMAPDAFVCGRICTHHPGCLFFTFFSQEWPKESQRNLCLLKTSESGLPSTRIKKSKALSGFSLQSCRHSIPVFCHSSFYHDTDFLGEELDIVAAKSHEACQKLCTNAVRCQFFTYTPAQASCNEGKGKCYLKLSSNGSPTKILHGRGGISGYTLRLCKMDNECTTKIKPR

half-life [1] [h] | bioavailability [1] [%] | IC50 (Thrombin) [µM] | IC50 (FXa) [µM] | IC50 (KLK1) [µM] | IC50 (Trypsin) [µM] | IC50 (Plasmin) [µM] | IC50 (Human Factor XIIa) [µM] | IC50 (FXIa) [µM] | IC50 (Plasma Kallikrein) [µM] | Structure (SMILES)
4.34 | 6.8 | > 40 | > 40 | 10 to 40 | > 40 | > 40 | 0.1 to 0.3 | > 40 | 3 to 10 | CC(C)N1C[C@@H]2C[C@H]1CN2CCc1ccc(CNc2cccc3c(N)nccc23)c(F)c1 (stereo in doubt) [Example 2212, N5-[[2-fluoro-4-[2-[(1S,4S)-5-isopropyl-2,5-diazabicyclo[2.2.1]heptan-2-yl]ethyl]phenyl]methyl]isoquinoline-1,5-diamine]
12.4 | 3 | > 40 | 3 to 10 | 1 to 3 | > 40 | > 40 | 0.01 to 0.1 | > 40 | 10 to 40 | CN1CCC(COc2cc(CNc3ccc4c(N)ncc(Cl)c4c3)ccn2)CC1 [Example 4268, 4-Chloro-N6-((2-((1-methylpiperidin-4-yl)methoxy)pyridin-4-yl)methyl)isoquinoline-1,6-diamine]
– | – | 10 to 40 | 3 to 10 | 3 to 10 | > 40 | > 40 | 0.1 to 0.3 | > 40 | > 40 | Nc1ncc(Cl)c2cc(NCc3ccnc(N4CCn5ccnc5C4)c3)ccc12 [Example 4437, 4-chloro-6-N-[(2-{5H,6H,8H-imidazo[1,2-a]pyrazin-7-yl}pyridin-4-yl)methyl]isoquinoline-1,6-diamine]
